pIC50: −log10 of the molar value.
Assays:
APC11/APC2 = APC11/APC2 (Homo sapiens, UniProt Q9NYG5+Q9UJX6); experiment: APC-11/APC-2 ligase assay (APC auto ubiquitination); type: biochemical; details: APC assay
How it was run: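 His-tagged APC was captured on nickel plates with human E1 (5 ng/well), UbcH5c (20 ng/well), APC (100 ng/well) and Flag-ubiquitin (100 ng/well) in a Tris pH 7.6 reaction buffer containing 2.5 mM ATP, for 1 hour at room temperature. Read-out was anti-Flag/HRP chemiluminescence. IC50 was set against a DMSO control, typically from 6 or 8 concentrations.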

[1] = tested on: ICAM-1 expression in A549 cells; experiment: ICAM assay (IL-1 induced ICAM-1/CD54 expression in A549 cells); type: cell-based, human; details: Homo sapiens, A549, ICAM assay
How it was run: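 Luminescent immunostaining (anti-CD54, then anti-mouse IgG, 1 h) quantifies ICAM-1 on A549 cells induced 4 h at 37° C by IL-1 (4 μl of 25 ng/ml added). Compound is added 1 h before the cytokine to cells plated overnight at 10,000 per well.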

Chain of APC11/APC2 (Q9NYG5 whole entry): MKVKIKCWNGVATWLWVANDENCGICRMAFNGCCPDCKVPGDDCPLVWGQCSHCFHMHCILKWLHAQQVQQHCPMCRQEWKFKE
Chain of APC11/APC2 (Q9UJX6 whole entry): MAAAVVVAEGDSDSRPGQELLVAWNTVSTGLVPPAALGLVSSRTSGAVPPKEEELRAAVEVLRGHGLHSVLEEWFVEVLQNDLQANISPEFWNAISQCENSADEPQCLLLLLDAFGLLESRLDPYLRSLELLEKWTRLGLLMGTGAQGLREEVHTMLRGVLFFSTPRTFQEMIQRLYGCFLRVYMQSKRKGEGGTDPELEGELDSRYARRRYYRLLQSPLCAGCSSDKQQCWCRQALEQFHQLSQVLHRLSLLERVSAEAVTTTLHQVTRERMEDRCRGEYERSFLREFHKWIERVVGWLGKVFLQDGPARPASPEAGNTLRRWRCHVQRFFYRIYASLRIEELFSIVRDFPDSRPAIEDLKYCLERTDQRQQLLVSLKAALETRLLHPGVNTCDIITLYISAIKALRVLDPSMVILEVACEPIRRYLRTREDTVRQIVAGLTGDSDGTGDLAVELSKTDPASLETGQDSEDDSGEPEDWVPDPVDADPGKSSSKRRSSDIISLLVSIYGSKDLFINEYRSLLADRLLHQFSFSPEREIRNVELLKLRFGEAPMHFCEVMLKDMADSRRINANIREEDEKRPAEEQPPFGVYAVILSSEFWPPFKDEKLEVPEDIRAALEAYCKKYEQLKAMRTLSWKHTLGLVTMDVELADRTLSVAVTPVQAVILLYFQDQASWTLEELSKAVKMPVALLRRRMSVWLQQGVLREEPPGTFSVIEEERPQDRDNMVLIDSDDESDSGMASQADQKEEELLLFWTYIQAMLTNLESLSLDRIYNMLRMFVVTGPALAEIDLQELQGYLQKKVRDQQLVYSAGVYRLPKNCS

| SMILES | pIC50 (APC11/APC2) | pIC50 [1] |
| --- | --- | --- |
| O=[N+]([O-])c1ccc(Sc2cccc3cccnc23)c2nonc12 [compound 5, 8-[(7-Nitro-2,1,3-benzoxadiazol-4-yl)thio]quinoline] | 4.70 to 6.00 |  |
| O=[N+]([O-])c1ccc(N2CCN(c3cc(C(F)(F)F)ccn3)CC2)c2nonc12 [compound 90, 4-nitro-7-{4-[4-(trifluoromethyl)pyridin-2-yl]piperazin-1-yl}-2,1,3-benzoxadiazole] | 4.70 to 6.00 |  |
| O=[N+]([O-])c1ccc(Oc2ccc(S(=O)(=O)Nc3cccc4nonc34)cc2Cl)c(C(F)(F)F)c1 [compound 114, N-2,1,3-benzoxadiazol-4-yl-3-chloro-4-[4-nitro-2-(trifluoromethyl)phenoxy]benzenesulfonamide] | 4.70 to 6.00 |  |
| N#CC1(c2ccccc2)CCN(c2ccc([N+](=O)[O-])c3nonc23)CC1 [compound 141, 1-(7-nitro-2,1,3-benzoxadiazol-4-yl)-4-phenylpiperidine-4-carbonitrile] | 4.70 to 6.00 |  |
| O=C(c1ccc(F)cc1)C1CCN(c2ccc([N+](=O)[O-])c3nonc23)CC1 [compound 142, (4-fluorophenyl)[1-(7-nitro-2,1,3-benzoxadiazol-4-yl)piperidin-4-yl]methanone] | 4.70 to 6.00 |  |
| CC1CC(C)CN(c2ccc([N+](=O)[O-])c3nonc23)C1 (stereo not shown) [compound 144, 4-(3,5-dimethylpiperidin-1-yl)-7-nitro-2,1,3-benzoxadiazole] | 4.70 to 6.00 |  |
| O=[N+]([O-])c1ccc(SCCO)c2nonc12 [compound 150, 2-[(7-nitro-2,1,3-benzoxadiazol-4-yl)thio]ethanol] |  | ≤ 4.70 |
| CCOC(=O)c1cc(C#N)c(C)nc1N1CCN(c2ccc([N+](=O)[O-])c3nonc23)CC1 [compound 153, ethyl 5-cyano-6-methyl-2-[4-(7-nitro-2,1,3-benzoxadiazol-4-yl)piperazin-1-yl]nicotinate] | 4.70 to 6.00 |  |
| O=[N+]([O-])c1ccc(N2CCC(O)(c3ccc(Cl)cc3)CC2)c2nonc12 [compound 159, 4-(4-chlorophenyl)-1-(7-nitro-2,1,3-benzoxadiazol-4-yl)piperidin-4-ol] | 4.70 to 6.00 |  |
| N#Cc1cccnc1N1CCN(S(=O)(=O)c2ccc(Cl)c3nonc23)CC1 [compound 170, 2-{4-[(7-chloro-2,1,3-benzoxadiazol-4-yl)sulfonyl]piperazin-1-yl}nicotinomtrile] |  | ≤ 4.70 |
| O=S(=O)(Oc1ccc(N2CCN(S(=O)(=O)c3ccc(Cl)c4nonc34)CC2)cc1)c1ccc(Cl)c2nonc12 [compound 171, 4-{4-[(7-chloro-2,1,3-benzoxadiazol-4-yl)sulfonyl]piperazin-1-yl}phenyl 7-chloro-2,1,3-benzoxadiazole-4-sulfonate] | 4.70 to 6.00 |  |
| N#Cc1ccccc1N1CCN(S(=O)(=O)c2c(Cl)ccc3nonc23)CC1 [compound 180, 2-{4-[(5-chloro-2,1,3-benzoxadiazol-4-yl)sulfonyl]piperazin-1-yl}benzonitrile] |  | ≤ 4.70 |
| O=S(=O)(c1c(N2CCN(c3ccc(Cl)c(C(F)(F)F)c3)CC2)ccc2nonc12)N1CCN(c2ccc(Cl)c(C(F)(F)F)c2)CC1 [compound 181, 5-{4-[4-chloro-3-(trifluoromethyl)phenyl]piperazin-1-yl}-4-({4-[4-chloro-3-(trifluoromethyl)phenyl]piperazin-1-yl}sulfonyl)-2,1,3-benzoxadiazole] | 4.70 to 6.00 |  |
| O=c1[nH]c2ccccc2n1C1CCN(S(=O)(=O)c2ccc(Cl)c3nonc23)CC1 [compound 188, 1-{1-[(7-chloro-2,1,3-benzoxadiazol-4-yl)sulfonyl]piperidin-4-yl}-1,3-dihydro-2H-benzimidazol-2-one] |  | ≤ 4.70 |
| Cc1cccc(N2CCN(S(=O)(=O)c3c(Cl)ccc4nonc34)CC2)n1 [compound 202, 5-chloro-4-{[4-(6-methylpyridin-2-yl)piperazin-1-yl]sulfonyl}-2,1,3-benzoxadiazole] |  | ≤ 4.70 |
| N#Cc1ccc(N2CCN(S(=O)(=O)c3c(Cl)ccc4nonc34)CC2)nc1 [compound 209, 6-{4-[(5-chloro-2,1,3-benzoxadiazol-4-yl)sulfonyl]piperazin-1-yl}nicotinonitrile] |  | ≤ 4.70 |
| O=S(=O)(c1ccc(Sc2ccc(O)cc2)c2nonc12)N1CCC(Oc2ncccn2)CC1 [compound 226, 4-[(7-{[4-(pyrimidin-2-yloxy)piperidin-1-yl]sulfonyl}-2,1,3-benzaxadiazol-4-yl)thio]phenol] |  | ≤ 4.70 |
| O=S(=O)(Nc1cccc(F)c1)c1ccc(Cl)c2nonc12 [compound 263, 7-chloro-N-(3-fluorophenyl)-2,1,3-benzoxadiazole-4-sulfonamide] |  | ≤ 4.70 |
| Cc1cc(C)cc(-c2ccc([N+](=O)[O-])c3nonc23)c1 [compound 286, 4-(3,5-Dimethylphenyl)-7-nitro-2,1,3-benzoxadiazole] | 4.70 to 6.00 |  |

The remaining lines, values ahead:

| pIC50 (APC11/APC2) | pIC50 [1] | SMILES |
| --- | --- | --- |
| 4.70 to 6.00 |  | O=[N+]([O-])c1ccc(Oc2c(Cl)cc(S(=O)(=O)Nc3cccc4nsnc34)cc2Cl)c(Cl)c1 [compound 73, N-2,1,3-benzothiadiazol-4-yl-3,5-dichloro-4-(2-chloro-4-nitrophenoxy)benzenesulfonamide] |
| 4.70 to 6.00 |  | O=S(=O)(Nc1cccc2nonc12)c1ccc(Oc2ncc(C(F)(F)F)cc2Cl)cc1 [compound 78, N-2,1,3-benzoxadiazol-4-yl-4-{[3-chloro-5-(trifluoromethyl)pyridin-2-yl]oxy}benzenesulfonamide] |
| 4.70 to 6.00 |  | O=S(=O)(Nc1cccc2nsnc12)c1ccc(Oc2ccccc2)cc1 [compound 94, N-2,1,3-benzothiadiazol-4-yl-4-phenoxybenzenesulfonamide] |
| 4.70 to 6.00 |  | O=[N+]([O-])c1ccc(N2CCN(c3ncccn3)CC2)c2nonc12 [compound 109, 4-nitro-7-(1,3-(pyrimidin-2-yl)piperazin-1-yl)-2,1,3-benzoxadiazole] |
| 4.70 to 6.00 |  | N#Cc1ccc(N2CCN(c3ccc([N+](=O)[O-])c4nonc34)CC2)nc1 [compound 121, 6-[4-(7-nitro-2,1,3-benzoxadiazol-4-yl)piperazin-1-yl]nicotinonitrile] |
| 4.70 to 6.00 |  | Cc1ccc(N2CCN(c3ccc([N+](=O)[O-])c4nonc34)CC2)cc1C [compound 140, 4-[4-(3,4-dimethylphenyl)piperazin-1-yl]-7-nitro-2,1,3-benzoxadiazole] |
| 4.70 to 6.00 |  | Cc1ccc(Cl)cc1N1CCN(c2ccc([N+](=O)[O-])c3nonc23)CC1 [compound 145, 4-[4-(5-chloro-2-methylphenyl)piperazin-1-yl]-7-nitro-2,1,3-benzoxadiazole] |
| 4.70 to 6.00 |  | O=[N+]([O-])c1ccc(N2CCN(c3ccc(O)cc3)CC2)c2nonc12 [compound 146, 4-[4-(7-nitro-2,1,3-benzoxadiazol-4-yl)piperazin-1-yl]phenol] |
| 4.70 to 6.00 |  | O=[N+]([O-])c1ccc(N2CCN(c3ncccc3C(F)(F)F)CC2)c2nonc12 [compound 148, 4-nitro-7-{4-[3-(trifluoromethyl)pyridin-2-yl]piperazin-1-yl}-2,1,3-benzoxadiazole] |
|  | ≤ 4.70 | COC(=O)c1ccc(NS(=O)(=O)c2ccc(F)c3nonc23)cc1 [compound 167, methyl 4-{[(7-fluoro-2,1,3-benzoxadiazol-4-yl)sulfonyl]amino}benzoate] |
| 4.70 to 6.00 |  | O=S(=O)(c1ccc(Sc2cccc3cccnc23)c2nonc12)N1CCN(c2ncc(C(F)(F)F)cc2Cl)CC1 [compound 177, 8-{[7-({4-[3-chloro-5-(trifluoromethyl)pyridin-2-yl]piperazin-1-yl}sulfonyl)-2,1,3-benzoxadiazol-4-yl]thio}quinoline] |
|  | ≤ 4.70 | COC(=O)c1ccc(NS(=O)(=O)c2c(Cl)ccc3nonc23)cc1 [compound 178, methyl 4-{[(5-chloro-2,1,3-benzoxadiazol-4-yl)sulfonyl]amino}benzoate] |
|  | ≤ 4.70 | O=S(=O)(c1ccc(Cl)c2nonc12)N1CCN(c2ncccn2)CC1 [compound 184, 4-chloro-7-[(4-pyrimidin-2-ylpiperazin-1-yl)sulfonyl]-2,1,3-benzoxadiazole] |
|  | ≤ 4.70 | O=S(=O)(c1ccc(Cl)c2nonc12)N1CCN(c2ccccc2)CC1 [compound 186, 4-chloro-7-[(4-phenylpiperazin-1-yl)sulfonyl]-2,1,3-benzoxadiazole] |
|  | ≤ 4.70 | CC1CC(C)CN(S(=O)(=O)c2ccc(Cl)c3nonc23)C1 (stereo not shown) [compound 192, 4-chloro-7-[(3,5-dimethylpiperidin-1-yl)sulfonyl]-2,1,3-benzoxadiazole] |
|  | ≤ 4.70 | O=S(=O)(c1c(Cl)ccc2nonc12)N1CCN(c2cnccn2)CC1 [compound 200, 5-chloro-4-[(4-pyrazin-2-ylpiperazin-1-yl)sulfonyl]-2,1,3-benzoxadiazole] |
|  | ≤ 4.70 | CC(=O)N1CCN(S(=O)(=O)c2c(Cl)ccc3nonc23)CC1 [compound 201, 4-[(4-acetylpiperazin-1-yl)sulfonyl]-5-chloro-2,1,3-benzoxadiazole] |
|  | ≤ 4.70 | CC(=O)N1CCN(S(=O)(=O)c2c(Sc3cccc4cccnc34)ccc3nonc23)CC1 [compound 214, 8-({4-[(4-acetylpiperazin-1-yl)sulfonyl]-2,1,3-benzoxadiazol-5-yl}thio)quinoline] |
|  | ≤ 4.70 | O=S(=O)(Nc1ccc2cn[nH]c2c1)c1ccc(Cl)c2nonc12 [compound 220, 7-chloro-N-1 H-indazol-6-yl-2,1,3-benzoxadiazole-4-sulfonamide] |
|  | ≤ 4.70 | O=S(=O)(Nc1ccc(F)c(F)c1)c1ccc(Cl)c2nonc12 [compound 262, 7-chloro-N-(3,4-difluorophenyl)-2,1,3-benzoxadiazole-4-sulfonamide] |
| 4.70 to 6.00 |  | COc1cccc(-c2ccc([N+](=O)[O-])c3nonc23)c1F [compound 314, 4-(2-Fluoro-3-methoxyphenyl)-7-nitro-2,1,3-benzoxadiazole] |
